The record followed here is publication PMC9138090, “Study on the Neuroprotective, Radical-Scavenging and MAO-B Inhibiting Properties of New Benzimidazole Arylhydrazones as Potential Multi-Target Drugs for the Treatment of Parkinson’s Disease” (Antioxidants, 2022).

The target of series [1] is T1, human recombinant MAO-B (hMAO-B) enzyme (Homo sapiens, UniProt P27338).
T1 construct: purchased Invitrogen, USA
T1 sequence (P27338 1-520): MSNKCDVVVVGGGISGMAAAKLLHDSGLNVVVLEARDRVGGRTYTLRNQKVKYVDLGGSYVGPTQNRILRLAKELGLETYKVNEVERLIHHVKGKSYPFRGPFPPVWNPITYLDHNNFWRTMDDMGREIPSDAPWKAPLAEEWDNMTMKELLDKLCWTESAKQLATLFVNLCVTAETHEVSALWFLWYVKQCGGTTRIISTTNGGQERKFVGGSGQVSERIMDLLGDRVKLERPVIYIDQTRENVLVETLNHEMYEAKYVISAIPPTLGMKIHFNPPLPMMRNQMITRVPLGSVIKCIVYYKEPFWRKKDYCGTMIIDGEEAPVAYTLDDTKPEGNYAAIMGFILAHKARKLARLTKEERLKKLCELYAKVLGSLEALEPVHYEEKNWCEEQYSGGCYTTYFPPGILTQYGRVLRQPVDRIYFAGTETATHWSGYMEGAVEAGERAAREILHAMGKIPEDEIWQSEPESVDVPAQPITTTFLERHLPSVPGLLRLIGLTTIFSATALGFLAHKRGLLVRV
As to the kind of experiment: hMAO-B activity, Amplex UltraRed fluorometric method. It counts as biochemical. The conditions noted are these: 1 µM. How it is done: The effects of the test compounds on human recombinant MAO-B (hMAO-B) enzyme were studied by the Amplex UltraRed reagent (Sigma-Aldrich Chemie GmbH) fluorometric method with small modifications. The working solutions of the compounds, reagents, hMAO-B, and reaction buffers were prepared according to the producer’s instructions. The tyramine hydrochloride was used as a substrate. The reaction mixture contained a stock solution of Amplex Red (10 mM in dimethyl sulfoxide), the reaction buffer (0.05 M sodium phosphate) at pH 7.4, and the storage solution of horseradish peroxidase (10 U/mL). There were pure MAO-B working solutions in the reaction buffer and MAO-B working solution containing hydrogen peroxide as controls. The final concentration of the test compounds in the well was 1 μM. The compounds together with hMAO-B were embedded in a 96-well plate (8 wells for each compound), and then the plate was incubated for 30 min (dark, at 37 °C). Thereafter, the reaction was initiated by 50 μL Mix Solution: Amplex®Red reagent, horseradish peroxidase, and tyramine as an enzyme substrate in the reaction buffer. The fluorescence was measured every 30 min at 0, 30, 60, 90, 120, and 150 min), in dark, while shaking the reaction mixture at constant temperature of 37 °C. The fluorimetric measurements were assessed using a Synergy 2 Microplate Reader.
Monoamine oxidase B catalyzes dopamine metabolism and oxidation leading to the formation of reactive oxygen species and reactive quinones, which provoke dopamine neurotoxicity and neurodegeneration. In the next experiments, the compounds showing the best safety profile and the most promising neuroprotective activity (3d, 3e, 3h, 3i, 3m, 3n, 3p) were evaluated for their potential inhibitory activity on hMAOB. Selegiline and rasagiline as potent MAO-B inhibitors were used as standard compounds for comparison.

A short description of series [2]: Fe(II)-induced oxidative damage of lecithin (TBA-RS). The conditions noted are these: 90 µmol/L, lecithin 1 mg/mL, FeCl2 0.1 mmol/L. The procedure:
The classical method of determining the TBA-reactive substances at 532 nm as described by Asakawa and Matsushita has been used. Two groups of measurement compositions named controls and samples were prepared in phosphate buffer (K2HPO4/KH2PO4, pH 7.4) for each of the used substrates. Both of them contained equivalent concentrations of lecithin (1 mg/mL) or 2-deoxyribose (0.5 mmol/L) and FeCl2 (0.1 mmol/L). In the controls, the tested hydrazones have been omitted and in the samples the effect of the newly designed compounds at the concentrations indicated below the figures has been determined. The obtained samples were incubated at 37 °C for 30 min. The reaction was stopped, and after adding 0.5 mL 2.8% trichloroacetic acid and 0.5 mL of thiobarbituric acid, the samples were heated in boiling water for 20 min. The lecithin containing samples were centrifuged at 3000 rpm for 20 min and the supernatant was aspired out. The results have been presented as a percentage of the control sample, treated only with ferrous iron where we expected maximum oxidative damage under the described conditions.

Series [3] deals with SH-SY5Y cells. Kind of series: MTT cytotoxicity on SH-SY5Y cells. It counts as cell-based, human. The conditions noted are these: MTT test, 24 h incubation; read-out: IC50, in vitro cytotoxicity on SH-SY5Y cells. How it is done: (§1) Human neuroblastoma cell line SH-SY5Y was obtained from the European Collection of Cell Cultures (ECACC, Salisbury, UK). The cells were maintained in 75 cm^2 flasks at 37 °C in a humidified atmosphere with 5% CO2 and cultured in RPMI 1640 medium, supplemented with 10% fetal bovine serum and 2 mM L-glutamine.
(§2) MTT (Sigma-Aldrich Chemie GmbH, Schnelldorf, Germany) assay is based on interaction between tetrazolium dye 3-(4,5-dimethylthiazol-2-yl)-2,5-diphenyltetrazolium bromide and succinic dehydrogenase in the living cells’ mitochondria. In this reaction, the formed purple formazan crystals indicate the presence of viable cells. SH-SY5Y cells were seeded in 96-well microplates at a density 2.5 × 10^4 cells/well and allowed to attach to the well surface at 37 °C in a humidified atmosphere with 5% CO2 (24 h). Different concentrations of compounds ([…]) were added to cells and incubated for 24 h. For each concentration, a set of at least 8 wells were used. After the treatment, the solution in each well was substituted with MTT (3-(4,5-dimethylthiazol-2-yl)-2,5-diphenyltetrazolium bromide) solution (0.5 mg/mL in culture medium). The microplates were further incubated for 3 h at 37 °C and the obtained formazan crystals were dissolved by 100 µL/well of DMSO. The absorbance was measured in a multiplate reader Synergy 2 (BioTek Instruments, Inc, Highland Park, Winooski, VT, USA) at 570 nm (690 nm for background absorbance).
(§3) An important step in the development of new pharmacologically active compounds is the establishment of their safety profile. An in vitro toxicity evaluation was carried out on the neuroblastoma cell line SH-SY5Y, which is a well-established model in neuroscience. The neuroblastoma SH-SY5Y are human derived cells with relatively homogeneous neuroblast-like structure. The cells express a dopamine-β-hydroxylase and tyrosine hydroxylase enzyme activity, specific types of human proteins and protein isoforms. The possible neurotoxic effects of the potential drug candidates were measured by cell viability assay (MTT-test). The IC50 values were used as a robust parameter for comparison. The test compounds were dissolved in DMSO and serially diluted in cell culture medium to achieve final concentrations ranging from 1 to 500 µM; the culture medium containing DMSO in the corresponding concentration was used as untreated controls. A concentration dependent effect on cell viability was observed after 24 h incubation.
(Tetrazolium dyes change colour on reduction, which living cells bring about.)

Series [4] can be described thus: MTT cytotoxicity on SH-SY5Y cells. The series is classed as cell-based, human. The conditions noted are these: human, SH-SY5Y neuroblastoma cells, MTT test, 24 h incubation; read-out: IC50, in vitro cytotoxicity on SH-SY5Y cells. The procedure:
as §1, §2, §3

The subject of series [5] is rat brain synaptosomes. As to the kind of experiment: 6-OHDA-induced neurotoxicity, GSH level. The conditions noted are these: for restoration of GSH level vs. 6-OHDA treatment: 10 µM pretreatment, 6-OHDA 150 mmol/L 1 h. It counts as cell-based. How it is done: (§4) Synaptosomes were prepared from brains of adult male Wistar rats. The brains were homogenized in 10 volume of cold buffer 1, containing 5 mM HEPES and 0.32 M sucrose (pH = 7.4). The brain homogenate was centrifuged twice at 1000× g for 5 min at 4 °C. The supernatant was collected and centrifuged 3 times at 10,000× g for 20 min at 4 °C. The pellet was re-suspended in ice-cold buffer 1. The synaptosomes were isolated by using Percoll reagent to prepare the gradient. Synaptosomes were re-suspended and incubated in buffer 2, containing 290 mM NaCl, 0.95 mM MgCl2 × 6H2O, 10 mM KCl, 2.4 mM CaCl2 × H2O, 2.1 mM NaH2PO4, 44 mM HEPES, and 13 mM D-glucose. Incubations were performed in a 5% CO2 + 95% O2 atmosphere. The content of synaptosomal protein was determined according to the method of Lowry et al. using bovine serum albumin as a standard.
(§5) The metabolism and oxidation of dopamine cause reactive oxygen radicals and reactive quinones to be produced, which could lead to neurotoxicity and neurodegeneration. The synaptosomes were incubated with the compounds (10 µM) for 30 min and then 6-hydroxydopamnine (150 mmol/L) was used to induce neurotoxicity. […] After 1 h, they were centrifuged on a microcentrifuge for 1 min at 15,000 rpm. The precipitates were gently mixed with buffer B and glucose and centrifuged for a second time at 15,000 rpm for 1 min. After the second wash, buffer B and glucose were added to the precipitates.
(§6) In the presented experiments, an in vitro assessment of the possible antioxidant and neuroprotective effects of the newly synthetized compounds was performed in a model of 6-OHDA induced toxicity in rat brain synaptosomes. 6-OHDA is a neurotoxicant that structurally resembles dopamine and can be used in different in vivo and in vitro models for neurotoxicity. This model resembles the histological, biochemical, and physiological characteristics of neurodegenerative diseases such as Parkinson’s and Alzheimer’s disease. […] However, their uptake into brain synaptosomes is similar among primates and rodents and they are suitable in vitro models for PD. The main mechanism of 6-OHDA toxicity includes induction of oxidative stress. It undergoes auto-oxidation or metabolic degradation to p-quinone and produces hydrogen peroxide, superoxide, and hydroxyl radicals. The process causes lipid peroxidation, protein oxidation, and DNA oxidation and finally results in oxidative stress and mitochondrial dysfunction. Rat brain synaptosomes were pretreated with compounds 3e, 3h, 3i, 3m, melatonin, and rasagiline (10 μM); after that, the samples were subjected to 6-OHDA (150 mmol/L, 1 h). The protective effects were evaluated by measurement of synaptosomal viability (MTT-test) and GSH levels (Figure 3).

The subject of series [6] is rat brain synaptosomes. Kind of series: 6-OHDA-induced neurotoxicity, synaptosomal viability. The series is classed as cell-based. The conditions noted are these: for increase of synaptosomal viability vs. 6-OHDA treatment: 10 µM pretreatment, 6-OHDA 1 h. The procedure:
as §4
Synaptosomal viability was measured by (3-(4,5)-dimethylthiazol-2-yl)-2,5-diphenyl tetrazolium bromide)-test, described by Mungarro-Menchaca et al. The synaptosomes were incubated with the compounds and then treated with (3-(4,5)-dimethylthiazol-2-yl)-2,5-diphenyl tetrazolium bromide) solution (0.5 mg/mL) for 1 h at 37 °C. After incubation they were centrifuged at 15,000× g for 1 min. The formed formazan crystals were dissolved in DMSO (Dimethyl sulfoxide). The extinction was measured spectrophotometrically at λ = 580 nm.
as §5, §6

For series [7], the system named is SH-SY5Y cells. As to the kind of experiment: H2O2-induced oxidative stress model in SH-SY5Y cells. It counts as cell-based, human. The conditions noted are these: 90 min pre-incubation, H2O2 1 mM 15 min. How it is done: SH-SY5Y cells were seeded in 96-well plates at a density of 3.5 × 10^4/well and allowed to attach at the wells’ bottom overnight. […] Afterwards, the SH-SY5Y cells were washed with phosphate-buffered saline (PBS) to remove the extracellular amount of the test compounds. […] Then, the contents of all wells were changed with culture medium. After 24 h, the amount of attached viable cells was evaluated by MTT assay. […] Rasagiline and melatonin (Sigma-Aldrich Chemie GmbH) were used as reference compounds because of their well-established neuroprotective activity. […] The toxic mechanisms of hydrogen peroxide include the generation of reactive hydroxyl radicals and formation of products which could damage cellular lipids, proteins and DNA. […] For comparison, the effects of two compounds with well established antioxidant activity—rasagiline and melatonin—were also evaluated.

Structures can show the parent of a compound that is named as a salt.

The compound `COc1cc(C=NNC(=O)CCn2c(=S)n(CCC(=O)NN=Cc3cc(OC)c(O)c(OC)c3)c3ccccc32)cc(OC)c1O` [3d, 3,3′-(2-Thioxo-1H-benzo[d]imidazole-1,3(2H)-diyl)bis(N′-(4-hydroxy-3,5-dimethoxybenzylidene)propanehydrazide)] returned a melting point of 284 to 286 °C. Moreover, in series [1], the “inhibitory effect on hMAOB activity (in words)” value was “statistically significant MAO-B inhibitory effects”. In series [2], the “sample/control absorbance ratio (% of the control), lecithin peroxidation” value is listed as “around 40%”. For the same compound, the half-maximal inhibitory concentration (IC50) in the series with SH-SY5Y cells [3] was 268 µM. The IC50 at 24 h in series [4] is more than 250 µM.

On to `NCCc1cc(O)c(O)cc1O` [6-OHDA, 6-hydroxydopamine, reference compound], for which, in the series with rat brain synaptosomes [5] (6-OHDA 150 mmol/L, 1 h), the “reduction of GSH level compared to untreated controls” value is 50%. Also, the “reduction of synaptosomal vitality compared to untreated controls” value in the series with rat brain synaptosomes [6] (6-OHDA, 1 h) was 56%.

`COc1ccc2[nH]cc(CCNC(C)=O)c2c1` [Melatonin]: in series [2], the “sample/control absorbance ratio (% of the control), lecithin peroxidation” value came to 75%. Further, in the series on rat brain synaptosomes [5], the “restoration of GSH level vs. 6-OHDA treatment” value is listed as 70%. For the same compound, the figures for the “cell viability protection vs. H2O2-treatment” value in the series with SH-SY5Y cells [7] (1 µM), in the series on SH-SY5Y cells [7] (10 µM) and in the series on SH-SY5Y cells [7] (50 µM) were 20%, 29% and 52%, respectively. For the same compound, the 50% inhibitory concentration (IC50) at 24 h in series [4] was more than 500 µM. For the same compound, in the series with rat brain synaptosomes [6], the “increase of synaptosomal viability vs. 6-OHDA treatment” value came to 68%.

Take `C#CCN[C@@H]1CCc2ccccc21` [Rasagiline HCl, Rasagiline]: the “restoration of GSH level vs. 6-OHDA treatment” value in the series on rat brain synaptosomes [5] is recorded as 60%. For the same compound, the “cell viability protection vs. H2O2-treatment” value is on record as 10% with SH-SY5Y cells [7] (1 µM), 20% in the series with SH-SY5Y cells [7] (10 µM) and 39% in the series on SH-SY5Y cells [7] (50 µM). The 50% inhibitory concentration (IC50) at 24 h in series [4] was more than 500 µM. Also, the “increase of synaptosomal viability vs. 6-OHDA treatment” value in the series on rat brain synaptosomes [6] is 61%.

In general, melting point refers to the temperature, or range, at which the solid turns liquid. Usually IC50 stands for the point on the concentration scale where inhibition reaches its midpoint.
